For 10 molecules, IC50 results are on record in patent US10654868B2, “Dihydropyrazole azepine compound serving as Akt inhibitor” (HARBIN ZHENBAO PHARMACEUTICAL CO., LTD., priority 2016, dated 2020).

Structures are written as SMILES.

For one assay, the system named is LNCaP cells. Description: LNCaP cell activity, CellTiter-Glo live cell detection. The settings on record: Homo sapiens, 72 h, 1000 cells per well, incubated 3 days, starting concentration 10 uM. The class given is cell-based. The procedure: Study 2: inhibitory effects of compounds on LNCaP cell activity
The amount of ATP directly reflects the number and the state of the cells, and the number of live cells can be detected by quantitatively measuring ATP. The live cell assay kit contains luciferase and its substrate. Through the participation of ATP, luciferase can catalyze the substrate, emit a stable optical signal, and the amount of ATP in the cell was determined by detecting the intensity of the signal. Wherein, the optical signal is proportional to the amount of ATP in the cell, and ATP is positively correlated with the number of live cells, so that the cell proliferation can be detected. The assay board is analyzed by PE company's Envision.
LNCaP cell was separately seeded in a 384-well plate, each well contains 1000 cells. The cell plate was placed in a carbon dioxide incubator and incubated overnight.
A duplicated experiment was performed with 10 concentrations of compound in a 3-fold dilution with Bravo.
Compound was transferred to the cell plate with a starting concentration of 10 uM. The cell plate was incubated in a carbon dioxide incubator for 3 days.
The Promega CellTiter-Glo reagent was added to the cell plate and incubated for 10 min at room temperature to stabilize the optical signal. Read the data by a PerkinElmer Envision multi-label analyzer.
(In general: Cellular ATP, detected with luciferase, serves as a proxy for viable cell number.)

The next assay has as its target T1, Akt3 (Homo sapiens, UniProt Q9Y243).
T1 construct: purchased life technology lot 1715050B (lot number only, catalogue number not given)
Description: Akt3 kinase inhibition, LANCE TR-FRET. The class given is biochemical. As to conditions: Akt3 2 nM, ATP 160 uM, 90 min at room temperature. The procedure: (§1) Study 1: The Inhibitory Effect of the Compounds on the Activity of Akt1, Akt2 and Akt3
Akt3 protein (life technology # lot 1715050B)
(§2) In this experiment, a homogeneous time-resolved fluorescence […] energy transfer (LANCE TR-FRET®) method was used. In the assay plate, enzymes, biotinylated polypeptide substrates and compound to be tested were mixed, and ATP was added to initiate the reaction and the mixture was incubated. After that, EDTA was added to terminate the reaction while an Eu-labeled antibody was added to carry out the reaction and the reaction was then detected. The assay plate was analyzed by PE company's Envision, and the analysis mode was TR-FRET. The data were represented by fluorescence signals at 665 nm and 615 nm, respectively.
(§3) Compound formulation: compound to be tested and the reference compound were diluted with 100% DMSO, the initial concentration of the compound was 10 uM, and diluted by 10 times in a 3-fold gradient. Transfer the compound to the cell plate and duplicate each well.
(§4) Kinase assay: the enzyme and substrate were mixed with different concentrations of pre-diluted compounds. […] Leave at room temperature for 15 min and diplicate each concentration. ATP was added, and the final concentrations were 36 uM, 360 uM and 160 uM in Akt1, Akt2, and Akt3 kinase reactions, respectively, and the reaction was carried out for 90 min at room temperature (in which negative and positive controls were set). After the reaction was completed, the antibody was added and the mixture was detected, and the cells were incubated for 60 min at room temperature, and then collected by Evnvision. Data analysis and fitting according to *Lfit5 software.

In another assay the target is T2, Akt2 (Homo sapiens, UniProt P31751).
T2 construct: purchased life technology lot 28870GG (lot number only, catalogue number not given)
T2 sequence (P31751 whole entry): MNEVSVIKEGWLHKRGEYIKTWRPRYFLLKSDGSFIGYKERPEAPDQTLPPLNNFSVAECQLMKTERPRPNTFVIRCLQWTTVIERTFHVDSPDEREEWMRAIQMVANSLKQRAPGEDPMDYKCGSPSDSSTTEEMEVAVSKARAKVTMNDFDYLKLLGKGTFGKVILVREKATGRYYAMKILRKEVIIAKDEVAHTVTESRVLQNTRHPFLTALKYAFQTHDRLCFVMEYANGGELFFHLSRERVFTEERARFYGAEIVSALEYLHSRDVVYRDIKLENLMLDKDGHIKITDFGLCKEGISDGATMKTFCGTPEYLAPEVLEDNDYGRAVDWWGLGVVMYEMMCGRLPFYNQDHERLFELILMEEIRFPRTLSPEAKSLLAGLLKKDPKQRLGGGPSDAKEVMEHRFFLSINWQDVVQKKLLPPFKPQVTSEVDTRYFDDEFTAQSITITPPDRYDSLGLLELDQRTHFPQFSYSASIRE
Description: Akt2 kinase inhibition, LANCE TR-FRET. It is filed as biochemical. The settings on record: Akt2 2 nM, ATP 360 uM, 90 min at room temperature. The procedure: as §1
Akt2 protein (life technology # lot 28870GG)
as §2, §3, §4
Background: TR-FRET usually uses a lanthanide donor and a delayed reading to cut background.

The next assay addresses T3, Akt1 (Homo sapiens, UniProt P31749).
T3 construct: purchased life technology lot11629928C (lot number only, catalogue number not given)
Description: Akt1 kinase inhibition, LANCE TR-FRET. The class given is biochemical. The procedure: as §1
Akt1 protein (life technology # lot11629928C)
as §2, §3, §4

T1 sequence (Q9Y243 whole entry): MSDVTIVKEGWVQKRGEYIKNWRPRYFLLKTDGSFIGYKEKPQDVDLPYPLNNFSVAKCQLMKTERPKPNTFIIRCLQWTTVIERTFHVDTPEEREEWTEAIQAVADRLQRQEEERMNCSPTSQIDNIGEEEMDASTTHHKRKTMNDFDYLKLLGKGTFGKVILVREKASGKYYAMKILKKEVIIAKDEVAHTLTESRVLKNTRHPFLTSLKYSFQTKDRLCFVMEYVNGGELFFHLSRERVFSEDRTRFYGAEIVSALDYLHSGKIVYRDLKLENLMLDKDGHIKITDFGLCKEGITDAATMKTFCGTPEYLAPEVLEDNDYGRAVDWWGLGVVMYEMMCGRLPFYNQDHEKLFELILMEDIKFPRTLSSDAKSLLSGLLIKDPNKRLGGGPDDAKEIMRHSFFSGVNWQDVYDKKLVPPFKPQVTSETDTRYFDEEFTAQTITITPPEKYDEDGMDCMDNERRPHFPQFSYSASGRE
T3 sequence (P31749 whole entry): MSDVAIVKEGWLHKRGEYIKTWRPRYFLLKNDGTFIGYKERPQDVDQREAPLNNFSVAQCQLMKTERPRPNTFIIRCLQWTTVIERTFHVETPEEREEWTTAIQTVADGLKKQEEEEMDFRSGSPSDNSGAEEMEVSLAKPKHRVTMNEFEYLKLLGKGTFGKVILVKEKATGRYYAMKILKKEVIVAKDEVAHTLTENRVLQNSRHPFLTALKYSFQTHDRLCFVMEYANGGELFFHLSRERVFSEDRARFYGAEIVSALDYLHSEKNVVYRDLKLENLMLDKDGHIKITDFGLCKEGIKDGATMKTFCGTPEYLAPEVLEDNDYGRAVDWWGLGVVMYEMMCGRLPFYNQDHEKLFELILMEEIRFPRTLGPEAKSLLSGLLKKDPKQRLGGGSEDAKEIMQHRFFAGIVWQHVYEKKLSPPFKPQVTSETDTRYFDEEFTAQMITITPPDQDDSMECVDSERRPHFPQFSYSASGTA

The IC50 is the concentration needed to halve the response being measured. For `NC[C@H](Cc1cccc(F)c1)NC(=O)c1cc2c(s1)CCCn1ncc(F)c1-2` [Embodiment 28], the half-maximal inhibitory concentration (IC50) with LNCaP cells was 1420 nM; against Akt3 it was 286 nM; on Akt2, 589 nM; against Akt1 it was 33.3 nM.
For `NC[C@H](Cc1cccc(F)c1)NC(=O)c1cc2c(s1)CCCn1ncc(Br)c1-2` [Embodiment 14] the same measures were 36 nM, 34 nM, 11 nM and 0.33 nM.
For `NC[C@H](Cc1cccc(C(F)(F)F)c1)NC(=O)c1cc2c(s1)CCCn1ncc(Cl)c1-2` [Embodiment 11] the same measures were 287 nM, 80 nM, 66 nM and 2.28 nM.
For `NC[C@H](Cc1ccc(F)c(F)c1)NC(=O)c1cc2c(s1)CCCn1ncc(Cl)c1-2` [Embodiment 7] the same measures were 59 nM, 24 nM, 19 nM and 0.71 nM.
`NC[C@H](Cc1cccc(F)c1)NC(=O)c1cc2c(s1)CCCn1ncc(-c3cccnc3)c1-2` [Embodiment 24]: the IC50 with LNCaP cells worked out at 3560 nM; on Akt3, 398 nM; against Akt2 it was 1860 nM; at Akt1, 67.4 nM.
The like results for `NC[C@H](Cc1cccc(F)c1)NC(=O)c1cc2n(n1)CCCn1ncc(Cl)c1-2` [Embodiment 36] were, in that order, 902 nM, 195 nM, 235 nM and 9.78 nM.
For `NC[C@H](Cc1cccc(F)c1)NC(=O)c1cc2c(s1)CCCn1ncc(Cl)c1-2` [Embodiment 1] the same measures were 58 nM, 21 nM, 24 nM and 0.36 nM.
For `NC[C@H](Cc1ccccc1C(F)(F)F)NC(=O)c1cc2c(s1)CCCn1ncc(Cl)c1-2` [Embodiment 10] the same measures were 159 nM, 29 nM, 17 nM and 0.63 nM.
Regarding `NC[C@H](Cc1cccc(F)c1)NC(=O)c1cc2c(s1)C(F)(F)CCn1ncc(Cl)c1-2` [Embodiment 33], the IC50 in the assay on LNCaP cells was 1750 nM; on Akt3 it was 108 nM; on Akt2 it was 490 nM; on Akt1, 13 nM.
For the molecule `NC[C@H](Cc1cccc(F)c1F)NC(=O)c1cc2c(s1)CCCn1ncc(Br)c1-2` [Embodiment 16], the IC50 in the assay with LNCaP cells came to 233 nM; against Akt3 it was 45 nM; at Akt2, 45 nM; against Akt1, 0.85 nM.
